Experimental data taken from PubChem BioAssay AID330 (DTP/NCI, 2004).
Values joined by “and” are separate entries in the source; they are usually repeats but may differ in a detail not shown here. Identical values can stand only once. Toxic doses and inconclusive results are not listed.

Tested on: P388 leukemia ip, CD2F1 mice, survival T/C
Test: NCI In Vivo Anticancer Drug Screen. Data for tumor model P388 Leukemia (intraperitoneal) in CD2F1 (CDF1) mice
Details: endpoint: median survival time, higher = longer survival
Method in brief: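 Mice carrying the transplanted tumor received test compound or vehicle. Survival was recorded in each group, and the value is the treated-group measurement divided by that of the vehicle-treated control group.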

[1] = dose: 25.0 mg/kg/injection, schedule: Q01DX005 (ip), vehicle: saline with Tween-80
[2] = dose: 120.0 mg/kg/injection, schedule: Q01DX005 (ip), vehicle: Klucel (hydroxypropylcellulose) (HPC)

## Cc1c(Cc2ccccc2)c(N2CCOCC2)n2c(nc3ccccc32)c1C#N
dose: 60.0 mg/kg/injection, schedule: Q01DX005 (ip), vehicle: saline with Tween-80
  T/C: 91 % of control
dose: 120.0 mg/kg/injection, schedule: Q01DX005 (ip), vehicle: saline with Tween-80
  T/C: 88 % of control
dose: 240.0 mg/kg/injection, schedule: Q01DX005 (ip), vehicle: saline with Tween-80
  T/C: 91 % of control

## C=C(C)CC(N)C(=O)O (stereo unspecified)
dose: 50.0 mg/kg/injection, schedule: Q01DX005 (ip), vehicle: saline
  T/C: 103 % of control
dose: 100.0 mg/kg/injection, schedule: Q01DX005 (ip), vehicle: saline
  T/C: 100 % of control
dose: 200.0 mg/kg/injection, schedule: Q01DX005 (ip), vehicle: saline
  T/C: 99 % of control

## NC(=O)/C=C/C(=O)c1c(Cl)cccc1Cl
dose: 1.56 mg/kg/injection, schedule: Q01DX009 (ip), vehicle: saline with Tween-80
  T/C: 113 % of control
dose: 3.13 mg/kg/injection, schedule: Q01DX009 (ip), vehicle: saline with Tween-80
  T/C: 111 % of control
dose: 6.25 mg/kg/injection, schedule: Q01DX009 (ip), vehicle: saline with Tween-80
  T/C: 94 % of control
dose: 12.5 mg/kg/injection, schedule: Q01DX009 (ip), vehicle: saline with Tween-80
  T/C: 86 % of control and 87 % of control

## CN(C)c1ccc(/C=N/Nc2nnc3c4ccccc4n(C)c3n2)cc1
dose: 12.5 mg/kg/injection, schedule: Q01DX005 (ip), vehicle: saline with Tween-80
  T/C: 91 % of control
[1]
  T/C: 97 % of control

## COc1ccc2sc(C)cc(=O)c2c1
dose: 50.0 mg/kg/injection, schedule: Q01DX009 (ip), vehicle: saline + Tween-80 + alcohol
  T/C: 106 % of control
dose: 100.0 mg/kg/injection, schedule: Q01DX009 (ip), vehicle: saline + Tween-80 + alcohol
  T/C: 109 % of control
dose: 200.0 mg/kg/injection, schedule: Q01DX009 (ip), vehicle: saline + Tween-80 + alcohol
  T/C: 109 % of control

## NC1C[S][Sn][O]C1=O (stereo unspecified)
dose: 100.0 mg/kg/injection, schedule: Q04DX003 (ip), vehicle: saline with Tween-80
  T/C: 111 % of control
dose: 200.0 mg/kg/injection, schedule: Q04DX003 (ip), vehicle: saline with Tween-80
  T/C: 109 % of control

## CC1(C)CC(C)(C)[P+]1(C)c1ccccc1
dose: 25.0 mg/kg/injection, schedule: Q01DX001 (ip), vehicle: saline
  T/C: 107 % of control
dose: 50.0 mg/kg/injection, schedule: Q01DX001 (ip), vehicle: saline
  T/C: 103 % of control

## Cc1cccc(N=Nc2c(C)nn(C(=S)S)c2C)c1C
dose: 100.0 mg/kg/injection, schedule: Q04DX002 (ip), vehicle: saline with Tween-80
  T/C: 100 % of control
dose: 200.0 mg/kg/injection, schedule: Q04DX002 (ip), vehicle: saline with Tween-80
  T/C: 99 % of control
dose: 400.0 mg/kg/injection, schedule: Q04DX002 (ip), vehicle: saline with Tween-80
  T/C: 98 % of control

## CCn1cnc(-c2ccccc2)c1-c1ccccc1
dose: 25.0 mg/kg/injection, schedule: Q04DX003 (ip), vehicle: saline with Tween-80
  T/C: 109 % of control
dose: 50.0 mg/kg/injection, schedule: Q04DX003 (ip), vehicle: saline with Tween-80
  T/C: 100 % of control

## Oc1ccccc1C=Nc1ccccc1N=Cc1ccccc1O.[Cu]
dose: 50.0 mg/kg/injection, schedule: Q01DX005 (ip), vehicle: Klucel (hydroxypropylcellulose) (HPC)
  T/C: 99 % of control
dose: 100.0 mg/kg/injection, schedule: Q01DX005 (ip), vehicle: Klucel (hydroxypropylcellulose) (HPC)
  T/C: 97 % of control
dose: 200.0 mg/kg/injection, schedule: Q01DX005 (ip), vehicle: Klucel (hydroxypropylcellulose) (HPC)
  T/C: 90 % of control

## CC(=O)c1c(C)n(-c2ccccc2)c2c1nnc1ccccc12
dose: 3.75 mg/kg/injection, schedule: Q01DX005 (ip), vehicle: Klucel (hydroxypropylcellulose) (HPC)
  T/C: 101 % of control
dose: 7.5 mg/kg/injection, schedule: Q01DX005 (ip), vehicle: Klucel (hydroxypropylcellulose) (HPC)
  T/C: 93 % of control
dose: 15.0 mg/kg/injection, schedule: Q01DX005 (ip), vehicle: Klucel (hydroxypropylcellulose) (HPC)
  T/C: 95 % of control
[2]
  T/C: 96 % of control

## CCN1C2OC3CCC2(C)C2C(OC)C4(O)C1C32C1CC2C(OC)CC4(O)C1C2O (stereo unspecified)
dose: 0.94 mg/kg/injection, schedule: Q01DX005 (ip), vehicle: saline + alcohol
  T/C: 106 % of control
dose: 1.88 mg/kg/injection, schedule: Q01DX005 (ip), vehicle: saline + alcohol
  T/C: 102 % of control
dose: 3.75 mg/kg/injection, schedule: Q01DX005 (ip), vehicle: saline + alcohol
  T/C: 108 % of control
dose: 7.5 mg/kg/injection, schedule: Q01DX005 (ip), vehicle: saline + alcohol
  T/C: 102 % of control

## COc1cccc(C=O)c1OCCSC
[1]
  T/C: 99 % of control
dose: 50.0 mg/kg/injection, schedule: Q01DX005 (ip), vehicle: saline with Tween-80
  T/C: 103 % of control
dose: 100.0 mg/kg/injection, schedule: Q01DX005 (ip), vehicle: saline with Tween-80
  T/C: 108 % of control

## OC1COCC1O (stereo unspecified)
dose: 25.0 mg/kg/injection, schedule: Q01DX009 (ip), vehicle: Klucel (hydroxypropylcellulose) (HPC)
  T/C: 100 % of control
dose: 50.0 mg/kg/injection, schedule: Q01DX009 (ip), vehicle: Klucel (hydroxypropylcellulose) (HPC)
  T/C: 102 % of control
dose: 100.0 mg/kg/injection, schedule: Q01DX009 (ip), vehicle: Klucel (hydroxypropylcellulose) (HPC)
  T/C: 100 % of control

## Cn1c(N=P(c2ccccc2)(c2ccccc2)c2ccccc2)cc(=O)n(C)c1=O
dose: 60.0 mg/kg/injection, schedule: Q01DX005 (ip), vehicle: Klucel (hydroxypropylcellulose) (HPC)
  T/C: 101 % of control
[2]
  T/C: 102 % of control
dose: 240.0 mg/kg/injection, schedule: Q01DX005 (ip), vehicle: Klucel (hydroxypropylcellulose) (HPC)
  T/C: 101 % of control

## CCN(CC)C(=O)N1CC1
dose: 100.0 mg/kg/injection, schedule: Q04DX002 (ip), vehicle: saline
  T/C: 102 % of control
dose: 200.0 mg/kg/injection, schedule: Q04DX002 (ip), vehicle: saline
  T/C: 100 % of control
